From patent US9650348B2, “Triazines with suitable spacers for treatment and/or prevention of HIV infections” (Universiteit Antwerpen, priority 2012, dated 2017) come the findings set out here.

Like-named read-outs stand apart in the source and are kept apart here.

The subject of data set [1] is HIV-1 Ba-L. The data set can be described thus: Antiviral activity in dendritic cells / CD4+ T lymphocytes (DC/T4), Ba-L. The class given is cell-based. The settings on record: Human immunodeficiency virus 1, BAL; DC/T4, Ba-L wild type; read-out: Antiviral activity-wild type viruses EC50 DC/T4 Ba-L.
Data set [2] concerns Ba-L V106A. The data set can be described thus: Antiviral activity, NNRTI-resistant virus V106A. It is filed as cell-based, HIV-1. The settings on record: for FC (V106A): Ba-L V106A; for EC50: Human immunodeficiency virus 1, BAL, read-out: Antiviral activity-NNRTI-resistant viruses EC50 Ba-L V106A. As to the method:
(§1) The target compounds are evaluated for their anti-HIV-1 activity and cytotoxicity. In a primary screen, the anti-HIV activity against the laboratory strain Ba-L and against a primary subtype C isolate was determined in the TZM-bl cell line. Cellular toxicity on TZM-bl cells was evaluated using WST-1. […] In addition, the activity against NNRTI-resistant viruses (V106A, Y181C, L100I+K103N, L100I+E138K+T369I and K101E+K103N+V108VI+V179M+Y181C+E138Q) was tested. Diarylpyrimidines (DAPY) TMC120, TMC125 and TMC278 were used as reference compounds.

In data set [3] the test system is HIV-1 BaL. Kind of data set: TZM-bl antiviral assay, wild type HIV-1 Ba-L. It is filed as cell-based. Particulars: Human immunodeficiency virus 1, BAL, read-out: Antiviral activity-wild type viruses EC50 TZM-bI Ba-L. As to the method:
(§2) The JC53-BL cell line, also known as the TZM-bl cell line (NIH AIDS Research and Reference Reagent Program, Germantown, USA), was used for the evaluation of anti-HIV activity. TZM-bl cells were cultured in Dulbecco's […] (DMEM) (Lonza) containing 10% heat-inactivated FBS and 50 μg gentamycin/mL at 37° C. in a humidified 5% CO2, 95% air environment. Twice a week the cells were treated with 0.25% trypsin-1 mM EDTA (Lonza) for 10 minutes. The resulting cell suspension was washed with an equivalent amount of TZM-bl medium and subsequently seeded in a T75 culture flask (Greiner Bio-One, Germany) at 10^6 cells in 20 mL medium.
(§3) The antiviral activity of the newly designed compounds was measured by pre-incubating ten thousand TZM-bl cells (at 10^5 cells/mL in culture medium supplemented with 30 μg/mL DEAE dextran) in a 96-well plate for 30 minutes at 37° C., 5% CO2 in the presence or absence of serial dilutions of the respective compound. Subsequently, 200 TCID50 of HIV-1 BaL was added to each well and cultures were incubated for 48 hours before quantifying luciferase activity, using a TriStar LB941 luminometer (Berthold Technologies GmbH & Co. KG, Bad Wildbad, Germany). Each condition was evaluated in triplicate wells and in at least two independent experiments. The antiviral activity of the compound was expressed as the percentage of viral inhibition compared to the untreated controls and subsequently plotted against the compound concentration.
as §1

Data set [4] is described as follows: in vitro. It is filed as cell-based. Particulars: human, Cytotoxicity CC50 TZM-bI.
Description: The Water Soluble Tetrazolium-1 (WST-1) Cell Proliferation Assay is a colorimetric assay for the measurement of cell proliferation and viability. The assay is based on the cleavage of the tetrazolium salt WST-1 (4-[3-(4-iodophenyl)-2-(4-nitrophenyl)-2H-5-tetrazolio]-1,3-benzene disulfonate) to a formazan dye by a complex cellular mechanism. This bioreduction is largely dependent on the glycolytic production of NAD(P)H in viable cells. Therefore, the amount of formazan dye formed correlates directly to the number of viable cells in the culture, and can be quantified by measuring the absorbance at 450 nm in a multiwell plate reader. The greater the number of viable cells, the greater the amount of formazan dye produced following the addition of WST-1. Cytotoxicity of each compound was evaluated using this WST-1 viability assay, according to the manufacturer's instructions (Roche, Vilvoorde, Belgium).
Briefly, ten thousand TZM-bl cells were seeded in a 96-well plate and cultured for 2 days in the presence of a serial dilution of compound. After this 48 h exposure, Cell Proliferation Reagent, WST-1, was added and absorbance at 450 nm was quantified after 90 min using a microplate reader (BioRad, Tokio, Japan). Each compound was tested in three replicate wells and in at least two independent experiments.
as §1

For data set [5], the system named is VI829 L100I+E138K+T369I. The data set can be described thus: Antiviral activity, NNRTI-resistant virus L100I+E138K+T369I. It is filed as cell-based, HIV-1. The settings on record: VI829, ** = L1001 + E138K + T3691. As to the method:
(§4) The target compounds are evaluated for their anti-HIV-1 activity and cytotoxicity. In a primary screen, the anti-HIV activity against the laboratory strain Ba-L and against a primary subtype C isolate was determined in the TZM-bl cell line. Cellular toxicity on TZM-bl cells was evaluated using WST-1. Based on the primary screening results, the target compound was further evaluated for anti-HIV activity in different primary cells, including peripheral blood mononuclear cells, dendritic cells and CD4+ T lymphocytes. In addition, the activity against NNRTI-resistant viruses (V106A, Y181C, L100I+K103N, L100I+E138K+T369I and K101E+K103N+V108VI+V179M+Y181C+E138Q) was tested. Diarylpyrimidines (DAPY) TMC120, TMC125 and TMC278 were used as reference compounds.

Data set [6] deals with HIV-1 Ba-L. The data set can be described thus: Antiviral activity in peripheral blood mononuclear cells (PBMC), Ba-L. Particulars: Human immunodeficiency virus 1, BAL, Ba-L wild type, read-out: Antiviral activity-wild type viruses EC50 PBMC Ba-L. The class given is cell-based.
Data set [7] deals with VI829. The data set can be described thus: TZM-bl antiviral assay, wild type VI829 (primary subtype C isolate). The class given is cell-based, HIV-1. The settings on record: read-out: Antiviral activity-wild type viruses EC50 TZM-bI VI829. As to the method: as §2, §3, §1
The test system of data set [8] is VI829 L100I+K103N. Kind of data set: Antiviral activity, NNRTI-resistant virus L100I+K103N. It is filed as cell-based, HIV-1. The settings on record: for EC50: Human immunodeficiency virus 1, read-out: Antiviral activity-NNRTI-resistant viruses EC50 VI829 L100I+K103N; for FC (L100I+K103N): VI829 L100I+K103N. As to the method:
as §1

Data set [9] deals with Ba-L K101E + K103N + V108VI + V179M + Y181C + E138Q. Kind of data set: Antiviral activity, NNRTI-resistant virus K101E+K103N+V108VI+V179M+Y181C+E138Q. The settings on record: for FC (*): Ba-L, * = K101E + K103N + V108VI + V179M + Y181C + E138Q; for EC50: Human immunodeficiency virus 1, BAL, read-out: Antiviral activity-NNRTI-resistant viruses EC50 Ba-L *. It is filed as cell-based, HIV-1. As for the experimental part:
as §4

The test system of data set [10] is VI829 Y181C. Kind of data set: Antiviral activity, NNRTI-resistant virus Y181C. The settings on record: for EC50: Human immunodeficiency virus 1, read-out: Antiviral activity-NNRTI-resistant viruses EC50 VI829 Y181C; for FC (Y181C): VI829 Y181C. It is filed as cell-based, HIV-1. As to the method:
as §1

The nature of data set [11]: Partition coefficient (Log D), octanol/PBS. The class given is physicochemical. The settings on record: octanol/PBS pH 7.4. As for the experimental part: 10 mM stock solution (in DMSO) was prepared.
200 μM solution (in DMSO) was prepared from 10 mM stock solution.
A set of 5-10 dilutions (in MeOH) of each compound were prepared from 200 μM solution to give final test concentrations between 1 nm and 2 μM.
MS tuning was done for each compound to find the daughter peaks using 500 nm solution.
Calibration curve was made for each compound to evaluate the linearity of our method.
Octanol was first saturated with PBS and PBS was first saturated with octanol
20 μl of a 10 mM DMSO stock solution was added to 990 μl of PBS (pH 7.4) and then 990 μl of octanol was added. The experiment was done in duplicate. After two hours of shaking at 37° C. and keeping at room temperature for 30 minutes the two layers were separated. After separation, octanol layer was diluted further with MeOH and compound was quantified in both layers by UPLC (waters). The samples were analysed in triplicate.
Where: • ConcINITIAL=Concentration of compound in the initial aqueous solution (PBS) • ConcFINAL=Concentration of compound in final aqueous phase (PBS) • Vaq=Volume of aqueous (PBS) • Voct=Volume of octanol

Where [12] appears, read: Human immunodeficiency virus 1, TZM-bl cells, VI829 wild type.

In the case of `Cc1cc(C=CC#N)cc(C)c1Nc1nc(N)nc(Nc2ccc(C#N)cc2)n1` [T1, 4-(4-amino-6-(4-(2-cyanovinyl)-2,6-dimethylphenylamino)-1,3,5-triazin-2-ylamino)benzonitrile], the EC50 in data set [1] was determined as 0.7 nM; in [2] it was 1.7 nM; in [3] (TZM-bl cells, Ba-L wild type) it was 1.3 nM; in data set [6], 1.8 nM; in data set [7] (setting [12]), 1.1 nM; in data set [8] it was 15 nM. The EC50 in data set [9] was 22.8 nM; in data set [10], 4 nM. For the same molecule, the “FC (V106A)” value in data set [2] came to 1. This molecule showed a 50% cytotoxic concentration (CC50) at 48 h in data set [4] of 34600 nM. In addition, in data set [5], the “FC (**)” value came out at 210. Also, in data set [8], the “FC (L100I+K103N)” value stood at 10. In data set [9], the “FC (*)” value worked out at 18. Besides, the “FC (Y181C)” value in data set [10] is 3.
On to `Cc1cc(/C=C/C#N)cc(C)c1Nc1nc(N)nc(Nc2ccc(C#N)cc2)n1` [T2, (E)-4-(4-amino-6-(4-(2-cyanovinyl)-2,6-dimethylphenylamino)-1,3,5-triazin-2-ylamino)benzonitrile], for which the EC50 is 0.51 nM in data set [1]; 1.9 nM in [2]; 1.3 nM in data set [3] (TZM-bl cells, Ba-L wild type); 5.3 nM in data set [6]; 1.3 nM in data set [7] (setting [12]); 6.8 nM in [8]. Moreover, the EC50 in data set [9] came to 23 nM; in data set [10] it was 2.6 nM. Besides, the “FC (V106A)” value in [2] amounted to 1. This molecule also came in with a CC50 at 48 h in [4] of 24500 nM. Moreover, the “FC (**)” value in data set [5] is given as 68. The “FC (L100I+K103N)” value in data set [8] was 5.2. For the same molecule, the “FC (*)” value in [9] worked out at 18. In [11], this molecule yielded a log distribution coefficient (logD) at 2 h of 3.8. In addition, the “FC (Y181C)” value in [10] was found to be 2.
For `Cc1cc(/C=C\C#N)cc(C)c1Nc1nc(N)nc(Nc2ccc(C#N)cc2)n1` [T3, (Z)-4-(4-amino-6-(4-(2-cyanovinyl)-2,6-dimethylphenylamino)-1,3,5-triazin-2-ylamino)benzonitrile], the EC50 in data set [1] worked out at 0.31 nM; in data set [2], 5.2 nM; in data set [3] (TZM-bl cells, Ba-L wild type), 1.1 nM; in [6], 6.1 nM; in [7] (setting [12]) it was 1.1 nM; in [8] it was 123 nM. Moreover, the EC50 in [9] came to 236 nM; in data set [10], 12 nM. Moreover, the “FC (V106A)” value in [2] is 5. In data set [4], this molecule returned a CC50 at 48 h of 30800 nM. Moreover, the “FC (**)” value in data set [5] stood at 1266. Besides, the “FC (L100I+K103N)” value in data set [8] was determined as 112. Besides, the “FC (*)” value in data set [9] was found to be 214. The “FC (Y181C)” value in data set [10] was 11.
For the molecule `Cc1cc(C=CC#N)cc(C)c1Nc1nc(Nc2ccc(C#N)cc2)nc(NC(C)C)n1` [T6, 4-((4-((4-(2-cyanovinyl)-2,6-dimethylphenyl)amino)-6-(isopropylamino)-1,3,5-triazin-2-yl)amino)benzonitrile], the EC50 in [1] amounted to 1.4 nM; in data set [2], 30 nM; in data set [3] (TZM-bl cells, Ba-L wild type), 5 nM; in data set [6], 14 nM; in [7] (setting [12]), 4.3 nM; in data set [8], 184 nM. Moreover, the values for the EC50 in [9] and in data set [10] were 424 nM and 45 nM, respectively. Besides, in data set [2], the “FC (V106A)” value is reported as 6. This molecule showed a CC50 at 48 h in data set [4] of 24700 nM. In data set [5], the “FC (**)” value worked out at 225. Moreover, the “FC (L100I+K103N)” value in data set [8] is recorded as 43. Further, in [9], the “FC (*)” value came to 85. Also, the “FC (Y181C)” value in data set [10] was determined as 10.
`Cc1cc(C#N)cc(C)c1Oc1nc(Nc2ccc(C#N)cc2)nc(N)c1Br` [TMC125, Etravirine, reference compound]: the EC50 worked out at 1.8 nM in [1]; 1.6 nM in data set [2]; 1.5 nM in data set [3] (TZM-bl); 5.9 nM in data set [6]; 1.5 nM in data set [7] (Human immunodeficiency virus 1, TZM-bl); 14 nM in data set [8]. Moreover, the figures for the EC50 in [9] and in data set [10] were 76 nM and 7.6 nM, respectively. Besides, in data set [2], the “FC (V106A)” value was 1. In addition, the “FC (**)” value in data set [5] was 62. The “FC (L100I+K103N)” value in [8] is listed as 9. Moreover, the “FC (*)” value in data set [9] came to 51. In addition, the “FC (Y181C)” value in [10] is 5.
